Each block holds one compound with its values, some of them ahead of it.
Legend:
Mushroom Tyrosinase [1] = assay: Inhibitory effects on mushroom tyrosinase (dopachrome, OD490, 15 min); assay type: biochemical; conditions: for IC50: 37° C., 15 min, L-tyrosine substrate
Description: (§1) L-Tyrosine, the substrate for tyrosinase, was dissolved in 50 mM sodium phosphate buffer (pH6.8) to prepare a solution of 0.1 mg/mL L-tyrosine. […] 100 μL of the L-tyrosine solution was introduced into a test tube, and 100 μL of 50 mM sodium phosphate buffer (pH6.8) with or without test samples were added thereto, and then 10 μL of 200 U/mL tyrosinase were mixed and incubated at 37° C. for 15 min.
The amount of dopachrome in the reaction mixture was determined spectrophotmetrically using absorbance measurement at 490 nm.

[2] = tested on: murine melanoma B16 cells; assay: Melanin production in murine melanoma B-16 cells; assay type: cell-based; conditions: for Melanin production (%): B16 cells, 3 days; for inhibitory effects on melanin production (in words): any of the concentrations assayed
Description: (§2) The melanoma cell line was grown in DMEM culture medium containing 4.5 g of glucose/l, 10% fetal bovine serum and 1% antibiotic agent and cultivated at 37° C. under a condition of 5% CO2. The cell suspension was inoculated in a 50 mL T-flask (3×10^5 cells/mL) and the cells were allowed to completely adhere to the plate for 24 hr. Then, test samples diluted in DMEM medium at concentrations of 1, 5, 10, 50, and 100 μg/mL were added to the cultivated cells, and the mixture was cultivated at 5% CO2 and 37° C. for 3 days. After cultivation, culture medium was thoroughly removed and the cells were isolated via trypsin treatment. The suspensions were then centrifuged for 5 min to collect cells. The obtained cells were treated with 5% trichloroacetic acid (TCA), stirred and centrifuged. The precipitated melanin was washed with phosphate buffered saline (PBS), and treated with 1 N NaOH to dissolve the melanin therein. Absorbance at 475 nm was measured. Melanin concentration was determined from a standard concentration curve of synthetic melanin (SIGMA Co., USA).

[3] = tested on: murine melanoma B16 cells; assay: Cell viability (MTT assay) of murine melanoma B-16 cells; assay type: cell-based
Description: as §2
(§3) We used the MTT assay to determine the percentage of viable cells. After cultivation was completed, a solution of MTT was added to the cultivation solution and the mixture was incubated at 37° C. for 4 hr. After incubation, culture medium was thoroughly removed, and the residue was treated with DMSO (Dimethyl sulfoxide) and shaken for 20 min. The optical density at 580 nm was measured by an ELISA microplate reader.

melan-a cell line [4] = assay: Melanin production in melan-a cell line; assay type: cell-based; conditions: melan-a cells; for Melanin production (%): 72 hr; for inhibitory effects on melanin production (in words): any of the concentrations assayed
Description: (§4) Melan-a cells were grown in 10 mL of RPMI 1640 medium supplemented with antibiotics, 10% fetal bovine serum (FBS), and 20 nM TPA. The cell suspension was inoculated in a 24-well plate (10^5 cells/mL) and the cells were allowed to completely adhere to the plate for 24 hr. Test samples dissolved in DMSO were added to the plate and incubated at 37° C. for 72 hr in a CO2 incubator. The culture medium was then thoroughly removed and the cells were isolated through trypsin treatment. The suspensions were then centrifuged for 5 min to collect cells, which were then treated with 5% trichloroacetic acid (TCA), stirred and centrifuged to precipitate the melanin. Melanin was washed with PBS and dissolved in 1 N NaOH. Absorbance at 475 nm was measured. Melanin concentration was determined from a standard concentration curve of synthetic melanin (SIGMA Co., USA).

melan-a cell line [5] = assay: Cell viability (MTT assay) of melan-a cell line; assay type: cell-based
Description: as §4, §3

Mushroom Tyrosinase [6] = assay: Extended duration of mushroom tyrosinase inhibition (up to 24 hours); assay type: biochemical; conditions: for reaction time until loss of tyrosinase inhibitory activity: 37° C., FIG. 3
Description: as §1
Using the experimental conditions described in the Mushroom Tyrosinase experiment described above, the reaction mixtures, containing various concentrations from 1 μg/mL to 50 μg/mL of the agents assayed, were incubated at 37° C. and spectrophotometric measurements of dopachrome were made at time intervals of up to 24 hours.

melanocytes = assay: Microscopic observation of pigmentation of confluent melanocyte monolayer; assay type: cell-based; conditions: cell line not specified
Description: The pigmentation of a confluent monolayer of melanocytes is visible microscopically, as the cells contain black melanin pigment.

IC50 (Mushroom Tyrosinase [1]): 145 µM | reaction time until loss of tyrosinase inhibitory activity (Mushroom Tyrosinase [6]; 2 μg/mL): loses activity in about one hour | reaction time until loss of tyrosinase inhibitory activity (Mushroom Tyrosinase [6]; 5 μg/mL): loses activity in about one hour
Structure (SMILES): OC[C@H]1O[C@@H](Oc2ccc(O)cc2)[C@H](O)[C@@H](O)[C@@H]1O [Arbutin, arbutin]
Melanin production (%) ([2]; 1 μg/mL): 99.4 ± 2.1% | Melanin production (%) ([2]; 5 μg/mL): 100.8 ± 4.5% | Melanin production (%) ([2]; 10 μg/mL): 103.2 ± 1.9% | Melanin production (%) ([2]; 50 μg/mL): 98.9 ± 8.2% | Melanin production (%) ([2]; 100 μg/mL): 98.2 ± 6.9% | inhibitory effects on melanin production (in words) ([2]; melanoma B-16 cells): did not show inhibitory effects on melanin production | Cell viability (%) ([3]; B16 cells, 1 μg/mL, MTT): 102.4 ± 5.3% | Cell viability (%) ([3]; B16 cells, 5 μg/mL, MTT): 100.1 ± 7.8% | Cell viability (%) ([3]; B16 cells, 10 μg/mL, MTT): 98.5 ± 6.3% | Cell viability (%) ([3]; B16 cells, 50 μg/mL, MTT): 96.6 ± 8.0% | Cell viability (%) ([3]; B16 cells, 100 μg/mL, MTT): 93.2 ± 5.6% | Melanin production (%) (melan-a cell line [4]; 1 μg/mL): 104.2 ± 3.2% | Melanin production (%) (melan-a cell line [4]; 5 μg/mL): 103.7 ± 4.6% | Melanin production (%) (melan-a cell line [4]; 10 μg/mL): 102.0 ± 5.7% | Melanin production (%) (melan-a cell line [4]; 50 μg/mL): 100.4 ± 4.0% | Melanin production (%) (melan-a cell line [4]; 100 μg/mL): 99.5 ± 7.2% | inhibitory effects on melanin production (in words) (melan-a cell line [4]): did not show inhibitory effects on melanin production | Cell viability (%) (melan-a cell line [5]; melan-a cells, 1 μg/mL, MTT): 104.2 ± 7.2% | Cell viability (%) (melan-a cell line [5]; melan-a cells, 5 μg/mL, MTT): 105.2 ± 8.3% | Cell viability (%) (melan-a cell line [5]; melan-a cells, 10 μg/mL, MTT): 100.7 ± 5.0% | Cell viability (%) (melan-a cell line [5]; melan-a cells, 50 μg/mL, MTT): 98.3 ± 7.7% | Cell viability (%) (melan-a cell line [5]; melan-a cells, 100 μg/mL, MTT): 93.8 ± 5.6%

Structure (SMILES): O=c1cc(CO)occ1O [Kojic acid, kojic acid]
Melanin production (%) ([2]; 1 μg/mL): 102.4 ± 4.7% | Melanin production (%) ([2]; 5 μg/mL): 98.2 ± 7.1% | Melanin production (%) ([2]; 10 μg/mL): 96.5 ± 3.7% | Melanin production (%) ([2]; 50 μg/mL): 94.1 ± 5.2% | Melanin production (%) ([2]; 100 μg/mL): 91.6 ± 7.1% | inhibitory effects on melanin production (in words) ([2]; melanoma B-16 cells): did not show inhibitory effects on melanin production | Cell viability (%) ([3]; B16 cells, 1 μg/mL, MTT): 95.2 ± 8.3% | Cell viability (%) ([3]; B16 cells, 5 μg/mL, MTT): 97.2 ± 7.6% | Cell viability (%) ([3]; B16 cells, 10 μg/mL, MTT): 96.2 ± 5.0% | Cell viability (%) ([3]; B16 cells, 50 μg/mL, MTT): 86.7 ± 3.4% | Cell viability (%) ([3]; B16 cells, 100 μg/mL, MTT): 81.7 ± 8.5% | Melanin production (%) (melan-a cell line [4]; 1 μg/mL): 103.4 ± 5.4% | Melanin production (%) (melan-a cell line [4]; 5 μg/mL): 100.5 ± 8.2% | Melanin production (%) (melan-a cell line [4]; 10 μg/mL): 99.4 ± 7.1% | Melanin production (%) (melan-a cell line [4]; 50 μg/mL): 95.1 ± 6.7% | Melanin production (%) (melan-a cell line [4]; 100 μg/mL): 92.4 ± 8.0% | inhibitory effects on melanin production (in words) (melan-a cell line [4]): did not show inhibitory effects on melanin production | Cell viability (%) (melan-a cell line [5]; melan-a cells, 1 μg/mL, MTT): 95.3 ± 8.0% | Cell viability (%) (melan-a cell line [5]; melan-a cells, 5 μg/mL, MTT): 96.8 ± 4.7% | Cell viability (%) (melan-a cell line [5]; melan-a cells, 10 μg/mL, MTT): 95.1 ± 9.0% | Cell viability (%) (melan-a cell line [5]; melan-a cells, 50 μg/mL, MTT): 84.2 ± 8.2% | Cell viability (%) (melan-a cell line [5]; melan-a cells, 100 μg/mL, MTT): 80.5 ± 8.3% | reaction time until loss of tyrosinase inhibitory activity (Mushroom Tyrosinase [6]; 2 μg/mL): loses activity within two hours | reaction time until loss of tyrosinase inhibitory activity (Mushroom Tyrosinase [6]; 5 μg/mL): within five hours

Structure (SMILES): Oc1cc(O)cc(/C=C/c2ccc(O)cc2O)c1 [Oxyresveratrol, oxyresveratrol]
IC50 (Mushroom Tyrosinase [1]): 2.4 µM | inhibitory effect on mushroom tyrosinase (in words) (Mushroom Tyrosinase [1]; FIGS. 1 and 2): the most potent inhibitors of mushroom tyrosinase | Melanin production (%) ([2]; 1 μg/mL): 94.3 ± 7.7% | Melanin production (%) ([2]; 5 μg/mL): 90.8 ± 4.4% | Melanin production (%) ([2]; 10 μg/mL): 87.5 ± 6.9% | Melanin production (%) ([2]; 50 μg/mL): 57.3 ± 8.1% | Melanin production (%) ([2]; 100 μg/mL): 19.5 ± 8.2% | reduction in melanin production ([2]; melanoma B-16 cells, 100 μg/mL): 80.5% | Cell viability (%) ([3]; mouse, 3 days, 1 μg/mL): 99.5 ± 5.4% | Cell viability (%) ([3]; mouse, 3 days, 5 μg/mL): 97.4 ± 5.9% | Cell viability (%) ([3]; mouse, 3 days, 10 μg/mL): 95.3 ± 7.6% | Cell viability (%) ([3]; mouse, 3 days, 50 μg/mL): 66.2 ± 8.3% | Cell viability (%) ([3]; mouse, 3 days, 100 μg/mL): 23.1 ± 4.8% | Melanin production (%) (melan-a cell line [4]; 1 μg/mL): 95.1 ± 3.1% | Melanin production (%) (melan-a cell line [4]; 5 μg/mL): 90.2 ± 6.4% | Melanin production (%) (melan-a cell line [4]; 10 μg/mL): 88.5 ± 7.4% | Melanin production (%) (melan-a cell line [4]; 50 μg/mL): 60.3 ± 9.1% | reduction in melanin production (melan-a cell line [4]; 100 μg/mL): 79.4% | Melanin production (%) (melan-a cell line [4]; 100 μg/mL): 20.6 ± 4.9% | Cell viability (%) (melan-a cell line [5]; mouse, 72 h, 1 μg/mL): 99.0 ± 5.8% | Cell viability (%) (melan-a cell line [5]; mouse, 72 h, 5 μg/mL): 96.9 ± 7.9% | Cell viability (%) (melan-a cell line [5]; mouse, 72 h, 10 μg/mL): 94.7 ± 4.2% | Cell viability (%) (melan-a cell line [5]; mouse, 72 h, 50 μg/mL): 68.5 ± 5.5% | Cell viability (%) (melan-a cell line [5]; mouse, 72 h, 100 μg/mL): 27.3 ± 7.8% | inhibition of tyrosinase activity after 24 hours (Mushroom Tyrosinase [6]; 24 hours incubation, even at the lower concentrations tested, FIG. 4): about 90% | IC50 (Mushroom Tyrosinase [6]; read-out: IC50 for tyrosinase inhibition after 24 hours incubation, 24 hours incubation): 2.6 µM | pigmentation of treated cells observed microscopically (melanocytes): Reduced pigmentation

Source: patent US20060216253A1, “Whitening cosmetics containing morus alba extracts” (Time and Cross, Inc., priority 2005, published 2006)
